Values joined by “and” are separate entries in the source; they are usually repeats but may differ in a detail not shown here. Equal entries are not always repeated.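 In this assay, cells in 96-well plates receive the compound at five concentrations for 48 hours. Endpoints are linearly interpolated between the surrounding concentrations. Abbreviation: GI50, concentration required for 50% inhibition of growth. TGI: concentration producing complete growth inhibition.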
Legend:
Experiment in all cases: inhibition of tumour cell growth, NCI panel, 48 h
[1] = system: ACHN renal
[2] = system: CAKI-1 renal
[3] = system: DMS 273 small cell lung
[4] = system: M19-MEL melanoma
[5] = system: MALME-3M melanoma
[6] = system: NCI-H226 lung
[7] = system: OVCAR-8 ovarian
[8] = system: SK-MEL-5 melanoma
[9] = system: TK-10 renal
[10] = system: UACC-257 melanoma

| SMILES | TGI [1] | TGI [2] | TGI [3] | TGI [4] | TGI [5] | TGI [6] | TGI [7] | TGI [8] | TGI [9] [µM] | TGI [10] | GI50 [1] [µM] | GI50 [2] | GI50 [4] | GI50 [5] | GI50 [6] | GI50 [7] | GI50 [8] | GI50 [9] [µM] | GI50 [10] | GI50 [3] [µM] |
| --- | --- | --- | --- | --- | --- | --- | --- | --- | --- | --- | --- | --- | --- | --- | --- | --- | --- | --- | --- | --- |
| CC(=O)CC[N+](C)(C)C | 26.5 µM | 3.83 µM | 53.2 µM | > 58.2 µM | 24.2 µM | 88.2 µM | 67.5 µM | 59.6 µM | 38.9 | 54.6 µM |  |  |  |  |  |  |  |  |  |  |
| CC(=O)OC1(Sc2ccccc2)CC2[C@H]3COC(C)(C)O[C@H]3CC[C@@]2(C)CC1=O (some centres undefined) | > 100 µM | > 100 µM | > 100 µM | > 100 µM | > 100 µM | > 100 µM | > 100 µM | 70 µM | > 100 | > 100 µM |  |  |  |  |  |  |  |  |  |  |
| Cc1nc2ccccc2c(=O)n1/N=C(\N=Nc1ccc(Cl)cc1)c1cccc(-c2ccco2)c1 | > 100 µM | 98.4 µM | > 100 µM | > 100 µM |  |  | > 100 µM | 57.4 µM | > 100 |  |  |  |  |  |  |  |  |  |  |  |
| CCC/C=C/C=C/C(=O)OC1/C(=C/C(=O)OC)CC2CC(C(C)O)OC(=O)CC(O)CC3CC(OC(C)=O)C(C)(C)C(O)(CC4C/C(=C/C(=O)OC)CC(/C=C/C(C)(C)C1(O)O2)O4)O3 (centres undefined) | 11 µM and > 12.5 µM | 10.9 µM and 11 µM and > 12.5 µM | > 10.9 µM and 11 µM | > 10.9 µM and 11 µM | 11 µM and > 12.5 µM | > 10.9 µM and 11 µM and > 12.5 µM | > 10.9 µM and 11 µM and > 12.5 µM | 10.9 µM and 11 µM and > 12.5 µM | > 12.5 | 6.42 µM and 11 µM and > 12.5 µM | > 12.5 | 2.79 µM and 4.05 µM and > 12.5 µM | > 10.9 µM and 7.88 µM | 5.71 µM and > 12.5 µM | > 10.9 µM and 9.74 µM | > 10.9 µM and 7.33 µM and > 12.5 µM | 7.86 µM and 1.9 µM and > 12.5 µM | > 11 | 5.13 µM and 8.15 µM and > 12.5 µM |  |
| S=C1SCC2CCCN12 (centres undefined) | > 100 µM | > 100 µM | > 100 µM | > 100 µM | > 100 µM |  | > 100 µM | > 100 µM | > 100 | > 100 µM |  |  |  |  |  |  |  |  |  |  |
| Cc1c(C)c2cc3c(=O)c(CCl)coc3c(C)c2oc1=O | > 100 µM |  |  | > 100 µM | > 100 µM | > 100 µM | > 100 µM | > 100 µM | > 100 | > 100 µM |  |  |  |  |  |  |  |  |  |  |
| N.N.N.N.N#N.N#N.[Cl-].[Os+6] |  | > 100 µM | > 100 µM |  | > 100 µM | > 100 µM | > 100 µM | > 100 µM | > 100 |  |  | > 100 µM |  | > 100 µM | > 100 µM | > 100 µM | > 100 µM | > 100 |  | > 100 |
| CC1(Cl)C(=O)NC(=O)N([C@H]2C[C@H](O)[C@@H](CO)O2)C1N=[N+]=[N-] (some centres undefined) | > 100 µM | > 100 µM | > 100 µM | > 100 µM | > 100 µM | > 100 µM | > 100 µM | > 100 µM | > 100 | > 100 µM |  |  |  |  |  |  |  |  |  |  |
| COc1ccc2c(c1OC)C(=O)C2 | > 100 µM |  | > 100 µM | > 100 µM | > 100 µM | > 100 µM | > 100 µM | > 100 µM | > 100 | > 100 µM |  |  |  |  |  |  |  |  |  |  |
| COc1ccccc1/C=C1\C(=O)N(C(=O)Cc2ccccc2)N=C1C | > 100 µM | > 100 µM | > 100 µM | > 100 µM | > 100 µM | > 100 µM | > 100 µM | > 100 µM | > 100 | > 100 µM |  |  |  |  |  |  |  |  |  |  |
| CC1=CC(=O)NP(=O)(Oc2ccc(Cl)cc2)N1 (centres undefined) | > 100 µM | > 100 µM | > 100 µM | > 100 µM | > 100 µM | > 100 µM | > 100 µM | > 100 µM | > 100 | > 100 µM |  |  |  |  |  |  |  |  |  |  |
| CC(C)(C)C1=CC(=N/N=c2\scc(-c3ccccc3)n2Cc2ccccc2)C=C(C(C)(C)C)C1=O | > 100 µM | > 100 µM | > 100 µM | > 100 µM | > 100 µM | > 100 µM | > 100 µM | > 100 µM |  | > 100 µM |  |  |  |  |  |  |  |  |  |  |
| Cc1nc(-n2nc(-c3ccccc3)cc2-c2ccccc2)sc1C(=O)CC(=O)C(=O)Nc1ccc(Cl)c(Cl)c1 | > 100 µM | > 100 µM | > 100 µM | > 100 µM | > 100 µM | > 100 µM | > 100 µM |  | > 100 | > 100 µM |  |  |  |  |  |  |  |  |  |  |
| N#CN1CC[C@@H]2CC3(CCC2C1)OCCO3 (some centres undefined) | > 100 µM | > 100 µM | > 100 µM | > 100 µM | > 100 µM | > 100 µM | > 100 µM | > 100 µM | > 100 | > 100 µM |  |  |  |  |  |  |  |  |  |  |
| COCN1COCN(C)C1=O | > 100 µM | > 100 µM | > 100 µM | > 100 µM | > 100 µM | > 100 µM | > 100 µM | > 100 µM | > 100 | > 100 µM |  |  |  |  |  |  |  |  |  |  |
| O=C1NC(c2ccccc2)(c2ccccc2)C(=O)N1CCCCCCN1C(=O)NC(c2ccccc2)(c2ccccc2)C1=O | > 100 µM | > 100 µM | > 100 µM | > 100 µM | 85.2 µM | > 100 µM | > 100 µM | 57.9 µM | 77 | > 100 µM |  |  |  |  |  |  |  |  |  |  |
| O=C(O)CCC(O)=C1S(=O)(=O)OCCOS1(=O)=O | > 100 µM | > 100 µM | > 100 µM | > 100 µM | > 100 µM | > 100 µM | > 100 µM | > 100 µM | > 100 | > 100 µM |  |  |  |  |  |  |  |  |  |  |
| Cn1cc(-c2ccc3c4ccccc4n(C)c3c2)c2ccccc21 | > 100 µM | > 100 µM |  | > 100 µM | > 100 µM | > 100 µM | > 100 µM | > 100 µM | > 100 | > 100 µM |  |  |  |  |  |  |  |  |  |  |
| O=C(n1c2ccccc2c2n[nH]c(=S)nc21)C(F)(F)F |  | > 100 µM | > 100 µM | > 100 µM | > 100 µM | > 100 µM | > 100 µM | > 100 µM | > 100 |  |  |  |  |  |  |  |  |  |  |  |
| Cc1cccc(NC(=O)c2c(N)[n+]([O-])c3ccccc3[n+]2[O-])c1 | 29.9 µM | 27.4 µM | 22.1 µM | 23.8 µM | 27.1 µM | 27 µM | 32.3 µM | 17 µM |  | 24.4 µM |  |  |  |  |  |  |  |  |  |  |
| Cc1cc(NS(=O)(=O)c2ccc(NC(=O)c3ccc(Cl)c4c(Nc5ccc(S(=O)(=O)Nc6cc(C)on6)cc5)c5ccccc5nc34)cc2)no1 | 53.7 µM | 30.6 µM | 42 µM | 50.3 µM | 48.7 µM |  | > 100 µM | 55.4 µM | 71.1 | 43.5 µM |  |  |  |  |  |  |  |  |  |  |

Reference: PubChem BioAssay (NCI)
